Reference: ChEMBL document CHEMBL3886390, “Triazolyl PDE10 inhibitors” (2015)

Molecular target: cAMP and cAMP-inhibited cGMP 3',5'-cyclic phosphodiesterase 10A (Homo sapiens, UniProt Q9Y233)
Test: Fluorescence Polarization Assay: In a typical experiment the PDE10 inhibitory activity of the compounds of the present invention was determined in accordance with the following experimental method. PDE10A2 was amplified from human fetal brain cDNA (Clontech, Mountain View, Calif.) using a forward primer corresponding to nucleotides 56-77 of human PDE10A2 (Accession No. AF127480, Genbank Identifier 4894716), containing a Kozak consensus sequence, and a reverse primer corresponding to nucleotides 2406-2413 of human PDE10A2 (Accession No. AF127480, Genbank Identifier 4894716). Amplification with Easy-A polymerase (Stratagene, La Jolla, Calif.) was 95° C. for 2 minutes followed by thirty three cycles of 95° C. for 40 seconds, 55° C. for 30 seconds, and 72° C. for 2 minutes 48 seconds. Final extension was 72° C. for 7 minutes. The PCR product was TA cloned into pcDNA3.2-TOPO (Invitrogen, Carlsbad, Calif.) according to standard protocol. AD293 cells with 70-80% confluency were transiently transfected with human PDE10A2.

cAMP and cAMP-inhibited cGMP 3',5'-cyclic phosphodiesterase 10A, sequence (Q9Y233 whole entry): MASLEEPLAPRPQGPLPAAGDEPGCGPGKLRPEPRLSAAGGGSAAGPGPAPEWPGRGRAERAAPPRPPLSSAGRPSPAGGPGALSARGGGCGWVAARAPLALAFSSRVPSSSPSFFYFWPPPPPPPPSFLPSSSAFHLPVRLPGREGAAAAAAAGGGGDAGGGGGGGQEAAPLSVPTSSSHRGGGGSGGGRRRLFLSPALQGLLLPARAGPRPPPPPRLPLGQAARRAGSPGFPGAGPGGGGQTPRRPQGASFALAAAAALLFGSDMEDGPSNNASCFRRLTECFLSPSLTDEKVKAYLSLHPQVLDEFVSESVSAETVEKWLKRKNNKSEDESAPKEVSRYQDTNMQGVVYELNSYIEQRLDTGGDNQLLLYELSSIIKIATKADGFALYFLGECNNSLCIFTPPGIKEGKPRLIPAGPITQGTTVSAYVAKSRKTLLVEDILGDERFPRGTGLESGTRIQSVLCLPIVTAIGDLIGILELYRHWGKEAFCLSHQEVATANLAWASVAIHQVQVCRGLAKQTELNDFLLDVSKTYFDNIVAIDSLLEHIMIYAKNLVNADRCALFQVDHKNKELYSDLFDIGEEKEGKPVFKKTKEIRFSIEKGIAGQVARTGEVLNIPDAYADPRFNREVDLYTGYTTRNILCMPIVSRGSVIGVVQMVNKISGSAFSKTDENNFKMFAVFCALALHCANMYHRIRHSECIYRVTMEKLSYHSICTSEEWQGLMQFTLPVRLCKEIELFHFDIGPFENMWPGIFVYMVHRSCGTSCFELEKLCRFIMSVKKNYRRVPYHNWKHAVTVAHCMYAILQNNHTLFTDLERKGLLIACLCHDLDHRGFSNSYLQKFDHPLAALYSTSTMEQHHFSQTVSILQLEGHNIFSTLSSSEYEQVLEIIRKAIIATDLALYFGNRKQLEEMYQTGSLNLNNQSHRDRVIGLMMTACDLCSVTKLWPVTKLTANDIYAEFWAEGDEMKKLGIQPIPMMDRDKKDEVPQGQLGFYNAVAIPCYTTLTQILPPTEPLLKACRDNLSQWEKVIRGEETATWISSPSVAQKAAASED

Row | Ki [nM] | SMILES
1 | 3.3 | COc1ccc(COc2cc(-n3nc(C)nc3Cc3ccc(OC)c(OC)c3)nc(C)n2)nc1
2 | 14.2 | Cc1nc(C2CC2c2nc3ccc(F)cc3[nH]2)cc(-n2nc(C)nc2C)n1 (configuration not stated)
